Molecular target: T1, Xaa-Pro dipeptidase (Homo sapiens) (UniProt P12955)
T1 sequence (whole entry): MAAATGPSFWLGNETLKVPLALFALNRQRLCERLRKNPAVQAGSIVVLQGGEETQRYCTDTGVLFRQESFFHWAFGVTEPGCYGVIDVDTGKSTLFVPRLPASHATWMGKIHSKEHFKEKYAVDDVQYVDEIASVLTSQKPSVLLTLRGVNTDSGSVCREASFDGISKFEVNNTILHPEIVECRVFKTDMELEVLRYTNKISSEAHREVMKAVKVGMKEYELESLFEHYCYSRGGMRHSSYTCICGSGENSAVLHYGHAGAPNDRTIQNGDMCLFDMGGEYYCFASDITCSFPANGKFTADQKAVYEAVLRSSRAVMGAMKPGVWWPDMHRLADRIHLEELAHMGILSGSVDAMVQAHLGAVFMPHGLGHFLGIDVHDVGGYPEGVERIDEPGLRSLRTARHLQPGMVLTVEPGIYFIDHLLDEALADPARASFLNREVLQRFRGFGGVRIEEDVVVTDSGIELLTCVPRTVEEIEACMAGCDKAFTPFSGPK
Description: Inhibitory constant for inhibition of prolidase in the second phase of biphasic inhibition

For C=C(OP(=O)(O)O)C(=O)O, the Ki' was 240 µM.
